Results on three compounds are retold here after article PMC4182434, “Characterization of Niphatenones that Inhibit Androgen Receptor N-Terminal Domain” (PLoS ONE, 2014).

Assay [1] has as its target T1, full-length AR (endogenous, LNCaP) (Homo sapiens, UniProt P10275, T878A).
T1 construct: endogenous full-length AR of LNCaP cells
T1 sequence (P10275 1-920 T878A): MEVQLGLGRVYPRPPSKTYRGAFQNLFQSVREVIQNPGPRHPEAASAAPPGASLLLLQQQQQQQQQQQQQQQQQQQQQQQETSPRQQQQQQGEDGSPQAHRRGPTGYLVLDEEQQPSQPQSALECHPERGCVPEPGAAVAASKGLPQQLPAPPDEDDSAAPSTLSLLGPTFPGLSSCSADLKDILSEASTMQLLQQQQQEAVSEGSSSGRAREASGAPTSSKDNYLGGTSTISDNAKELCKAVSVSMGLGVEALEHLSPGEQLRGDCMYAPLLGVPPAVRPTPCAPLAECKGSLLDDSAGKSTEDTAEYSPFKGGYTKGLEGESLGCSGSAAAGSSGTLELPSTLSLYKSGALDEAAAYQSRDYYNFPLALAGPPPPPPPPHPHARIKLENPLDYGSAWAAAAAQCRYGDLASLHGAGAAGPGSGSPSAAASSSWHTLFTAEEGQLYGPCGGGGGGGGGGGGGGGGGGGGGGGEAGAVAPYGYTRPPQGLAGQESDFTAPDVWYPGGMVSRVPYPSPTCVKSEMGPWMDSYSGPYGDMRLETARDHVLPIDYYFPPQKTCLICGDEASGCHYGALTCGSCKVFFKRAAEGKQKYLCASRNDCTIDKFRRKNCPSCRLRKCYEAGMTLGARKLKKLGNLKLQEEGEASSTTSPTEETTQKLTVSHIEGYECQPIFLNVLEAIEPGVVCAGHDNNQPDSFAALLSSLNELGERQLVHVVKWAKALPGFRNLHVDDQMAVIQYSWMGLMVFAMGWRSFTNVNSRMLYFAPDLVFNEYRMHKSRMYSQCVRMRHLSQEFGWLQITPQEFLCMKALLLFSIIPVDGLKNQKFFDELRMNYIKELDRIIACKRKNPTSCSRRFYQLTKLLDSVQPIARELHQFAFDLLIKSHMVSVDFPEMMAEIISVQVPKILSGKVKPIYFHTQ
Kind of assay: PB-luciferase reporter in LNCaP cells. In kind it is cell-based. The settings on record: R1881-induced, serum-free, […] h; antagonist, AF-1 directed; covalent. Background: A reporter such as luciferase makes a cellular process visible.

Assay [2] deals with T2, AR AF-1 (Homo sapiens, UniProt P10275).
T2 construct: recombinant AF-1 region, residues 142-485
T2 sequence (P10275 143-486): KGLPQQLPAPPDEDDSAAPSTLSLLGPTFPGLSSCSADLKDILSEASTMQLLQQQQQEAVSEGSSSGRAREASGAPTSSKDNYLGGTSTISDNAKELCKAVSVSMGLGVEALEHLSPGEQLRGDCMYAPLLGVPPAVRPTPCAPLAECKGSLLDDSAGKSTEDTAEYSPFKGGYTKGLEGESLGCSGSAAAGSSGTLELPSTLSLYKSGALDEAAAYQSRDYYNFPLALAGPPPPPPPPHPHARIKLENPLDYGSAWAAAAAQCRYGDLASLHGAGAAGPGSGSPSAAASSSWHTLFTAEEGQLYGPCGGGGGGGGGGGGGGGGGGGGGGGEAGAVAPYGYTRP
Kind of assay: Click-chemistry fluorescein labelling, SDS-PAGE. The settings on record: covalent; […] protein, […] probe, on ice […] min. In kind it is binding.

As for `CCCCCCCCCCCCC(=O)/C=C/CCCOC[C@H](O)CO` [(R)-niphatenone B], it took 6.3 ± 0.5 µM to reach half-maximal inhibition in assay [1] (IC50).

For the compound `CCCCCCCCCCCCC(=O)/C=C/CCCOC[C@@H](O)CO` [(S)-niphatenone B], the half-inhibitory concentration (IC50) in assay [1] is 5.7 ± 0.6 µM.

With `C#CCOCC(O)COCCC/C=C/C(=O)CCCCCCCCCCCC` (stereo not drawn) [compound 44, niphatenone B 44], the “Click-chemistry fluorescein labelling, SDS-PAGE” value in assay [2] is “resulted in covalent binding to both AR AF-1 and GR AF-1 peptide”.

As a reminder, the IC50 is the point on the concentration scale where inhibition reaches its midpoint. Read a high IC50 as weaker potency.
